Assay results: ChEMBL document CHEMBL5463728, “Data for DCP probe BAY-6096” (2023); call rule not given here
Blank lines part the entries; values can stand above or below the compound they belong to.

Experiments:
[1] = molecular target: Alpha-2B adrenergic receptor (Canis lupus familiaris, UniProt Q2MDQ0); test: Cell based assay dog (ADRA2B); type: functional
[2] = molecular target: Phosphodiesterase 3 (Homo sapiens) (UniProt Q14432+Q13370); test: Inhibition of Phosphodiesterase PDE3 at compound concentration of 10.0 uM in the Eurofins-Panlabs enzyme assay (Eurofins_assay_152000); type: protein assay; design: substrate with concentration 1.01 uM [3H] cAMP + cAMP, incubation time 20 min, incubation temperature 25 C; details: Compound concentration 10.0 uM
[3] = molecular target: Polyunsaturated fatty acid lipoxygenase ALOX15 (Homo sapiens) (UniProt P16050); test: Inhibition of Lipoxygenase 15-LO at compound concentration of 10.0 uM in the Eurofins-Panlabs enzyme assay (Eurofins_assay_199017); details: Compound concentration 10.0 uM
[4] = molecular target: Nitric oxide synthase, inducible (Homo sapiens) (UniProt P35228); test: Inhibition of Nitric Oxide Synthase, Inducible (iNOS) at compound concentration of 10.0 uM in the Eurofins-Panlabs enzyme assay (Eurofins_assay_199010); design: substrate with concentration; details: Mus musculus; Compound concentration 10.0 uM
[5] = molecular target: Aldo-keto reductase family 1 member B1 (Rattus norvegicus) (UniProt P07943); test: Inhibition of Aldose Reductase at compound concentration of 10.0 uM in the Eurofins-Panlabs enzyme assay (Eurofins_assay_107000); design: substrate with concentration; details: Compound concentration 10.0 uM
[6] = molecular target: Adenosine receptor A2a (Homo sapiens) (UniProt P29274); details: Compound concentration 10.0 uM
[7] = molecular target: D(1A) dopamine receptor (Homo sapiens) (UniProt P21728); details: Compound concentration 10.0 uM
D(2) dopamine receptor = D(2) dopamine receptor (Homo sapiens, UniProt P14416); details: Compound concentration 10.0 uM
[8] = molecular target: D(3) dopamine receptor (Homo sapiens) (UniProt P35462); details: Compound concentration 10.0 uM
[9] = molecular target: Endothelin-1 receptor (Homo sapiens) (UniProt P25101); details: Compound concentration 10.0 uM
[10] = molecular target: Endothelin receptor type B (Homo sapiens) (UniProt P24530); details: Compound concentration 10.0 uM
[11] = molecular target: Glutamate NMDA receptor (Rattus norvegicus) (UniProt P35439+Q00959+Q00960+Q00961+Q62645+Q8VHN2+Q9R1M7); details: Compound concentration 10.0 uM
[12] = molecular target: Delta-type opioid receptor (Homo sapiens) (UniProt P41143); details: Compound concentration 10.0 uM
[13] = molecular target: Kappa-type opioid receptor (Homo sapiens) (UniProt P41145); details: Compound concentration 10.0 uM
[14] = molecular target: T1, 5-hydroxytryptamine receptor 1A (Homo sapiens) (UniProt P08908); details: Compound concentration 10.0 uM
T1 sequence (whole entry): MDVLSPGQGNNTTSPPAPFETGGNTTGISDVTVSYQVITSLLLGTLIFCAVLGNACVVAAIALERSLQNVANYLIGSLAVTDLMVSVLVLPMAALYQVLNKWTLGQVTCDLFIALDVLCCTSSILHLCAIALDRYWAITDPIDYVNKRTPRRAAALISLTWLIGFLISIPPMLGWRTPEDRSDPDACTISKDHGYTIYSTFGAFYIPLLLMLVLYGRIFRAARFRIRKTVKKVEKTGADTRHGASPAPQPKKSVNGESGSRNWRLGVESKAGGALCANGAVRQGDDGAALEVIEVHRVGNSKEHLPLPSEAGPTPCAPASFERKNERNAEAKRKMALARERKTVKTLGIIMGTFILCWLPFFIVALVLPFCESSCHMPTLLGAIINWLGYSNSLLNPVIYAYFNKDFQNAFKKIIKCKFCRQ

[15] = molecular target: cGMP-specific 3',5'-cyclic phosphodiesterase (Homo sapiens) (UniProt O76074); details: Compound concentration 10.0 uM
[16] = molecular target: GABA-A receptor; anion channel (Rattus norvegicus) (UniProt O09028+P15431+P18506+P18508+P19969+P20236+P23574+P23576+P28471+P28473+P30191+P62813+P63079+P63138+Q91ZM7+Q9ES14); details: Compound concentration 10.0 uM
[17] = molecular target: Insulin receptor (Homo sapiens) (UniProt P06213); details: Rattus norvegicus; Compound concentration 10.0 uM
[18] = molecular target: T2, Muscarinic acetylcholine receptor M4 (Homo sapiens) (UniProt P08173); details: Compound concentration 10.0 uM
T2 sequence (whole entry): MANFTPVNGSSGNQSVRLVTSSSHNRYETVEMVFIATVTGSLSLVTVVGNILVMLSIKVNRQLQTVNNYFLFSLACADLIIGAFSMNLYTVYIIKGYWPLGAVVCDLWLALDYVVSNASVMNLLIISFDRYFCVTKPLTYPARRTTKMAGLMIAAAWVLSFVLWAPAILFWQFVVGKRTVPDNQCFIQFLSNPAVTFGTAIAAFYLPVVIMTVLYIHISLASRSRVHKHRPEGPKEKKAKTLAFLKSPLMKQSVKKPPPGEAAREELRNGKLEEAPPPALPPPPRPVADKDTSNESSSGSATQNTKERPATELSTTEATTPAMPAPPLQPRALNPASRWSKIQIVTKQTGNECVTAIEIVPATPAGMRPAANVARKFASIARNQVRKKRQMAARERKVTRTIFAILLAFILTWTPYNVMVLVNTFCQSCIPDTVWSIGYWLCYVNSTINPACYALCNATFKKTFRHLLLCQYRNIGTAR

[19] = molecular target: T3, 5-hydroxytryptamine receptor 2C (Homo sapiens) (UniProt P28335); details: Compound concentration 10.0 uM
T3 sequence (whole entry): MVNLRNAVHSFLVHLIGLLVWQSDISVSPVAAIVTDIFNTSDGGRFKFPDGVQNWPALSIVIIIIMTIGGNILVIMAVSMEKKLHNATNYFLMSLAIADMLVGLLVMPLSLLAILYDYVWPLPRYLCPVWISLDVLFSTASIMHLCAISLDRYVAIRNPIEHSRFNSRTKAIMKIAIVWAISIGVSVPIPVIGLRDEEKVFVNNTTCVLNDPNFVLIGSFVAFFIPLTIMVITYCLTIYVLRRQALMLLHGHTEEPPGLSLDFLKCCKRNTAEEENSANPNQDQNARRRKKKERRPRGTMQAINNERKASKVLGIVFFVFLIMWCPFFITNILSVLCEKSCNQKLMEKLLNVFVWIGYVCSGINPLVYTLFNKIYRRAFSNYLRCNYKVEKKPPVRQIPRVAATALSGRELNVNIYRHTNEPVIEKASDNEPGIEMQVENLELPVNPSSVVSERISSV

[20] = molecular target: Cannabinoid receptor 2 (Homo sapiens) (UniProt P34972); details: Compound concentration 10.0 uM
[21] = molecular target: Androgen receptor (Homo sapiens) (UniProt P10275); details: Compound concentration 10.0 uM
[22] = molecular target: Growth hormone secretagogue receptor type 1 (Homo sapiens) (UniProt Q92847); details: Compound concentration 10.0 uM
Sequence of Growth hormone secretagogue receptor type 1 (Homo sapiens) (Q92847 whole entry): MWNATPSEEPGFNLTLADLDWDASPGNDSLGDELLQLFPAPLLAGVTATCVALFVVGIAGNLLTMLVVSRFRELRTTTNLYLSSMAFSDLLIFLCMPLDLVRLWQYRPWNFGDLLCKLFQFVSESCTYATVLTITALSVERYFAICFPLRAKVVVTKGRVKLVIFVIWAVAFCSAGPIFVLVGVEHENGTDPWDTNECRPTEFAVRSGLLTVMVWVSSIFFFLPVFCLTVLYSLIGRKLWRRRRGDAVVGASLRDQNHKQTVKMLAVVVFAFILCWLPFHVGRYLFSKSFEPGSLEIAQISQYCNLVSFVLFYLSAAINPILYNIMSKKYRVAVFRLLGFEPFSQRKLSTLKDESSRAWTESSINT

Sequence of Alpha-2B adrenergic receptor (Q2MDQ0 whole entry): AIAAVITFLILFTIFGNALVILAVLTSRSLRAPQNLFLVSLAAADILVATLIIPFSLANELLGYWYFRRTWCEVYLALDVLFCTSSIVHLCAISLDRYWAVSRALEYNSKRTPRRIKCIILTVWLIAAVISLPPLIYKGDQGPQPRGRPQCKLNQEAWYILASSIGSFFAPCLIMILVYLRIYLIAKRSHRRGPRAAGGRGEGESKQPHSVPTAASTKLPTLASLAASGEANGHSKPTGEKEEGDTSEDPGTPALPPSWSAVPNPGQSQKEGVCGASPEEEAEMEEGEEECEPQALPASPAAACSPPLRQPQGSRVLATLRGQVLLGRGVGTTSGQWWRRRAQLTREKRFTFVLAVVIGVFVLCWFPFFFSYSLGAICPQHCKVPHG
Sequence of Nitric oxide synthase, inducible (Homo sapiens) (P35228 whole entry): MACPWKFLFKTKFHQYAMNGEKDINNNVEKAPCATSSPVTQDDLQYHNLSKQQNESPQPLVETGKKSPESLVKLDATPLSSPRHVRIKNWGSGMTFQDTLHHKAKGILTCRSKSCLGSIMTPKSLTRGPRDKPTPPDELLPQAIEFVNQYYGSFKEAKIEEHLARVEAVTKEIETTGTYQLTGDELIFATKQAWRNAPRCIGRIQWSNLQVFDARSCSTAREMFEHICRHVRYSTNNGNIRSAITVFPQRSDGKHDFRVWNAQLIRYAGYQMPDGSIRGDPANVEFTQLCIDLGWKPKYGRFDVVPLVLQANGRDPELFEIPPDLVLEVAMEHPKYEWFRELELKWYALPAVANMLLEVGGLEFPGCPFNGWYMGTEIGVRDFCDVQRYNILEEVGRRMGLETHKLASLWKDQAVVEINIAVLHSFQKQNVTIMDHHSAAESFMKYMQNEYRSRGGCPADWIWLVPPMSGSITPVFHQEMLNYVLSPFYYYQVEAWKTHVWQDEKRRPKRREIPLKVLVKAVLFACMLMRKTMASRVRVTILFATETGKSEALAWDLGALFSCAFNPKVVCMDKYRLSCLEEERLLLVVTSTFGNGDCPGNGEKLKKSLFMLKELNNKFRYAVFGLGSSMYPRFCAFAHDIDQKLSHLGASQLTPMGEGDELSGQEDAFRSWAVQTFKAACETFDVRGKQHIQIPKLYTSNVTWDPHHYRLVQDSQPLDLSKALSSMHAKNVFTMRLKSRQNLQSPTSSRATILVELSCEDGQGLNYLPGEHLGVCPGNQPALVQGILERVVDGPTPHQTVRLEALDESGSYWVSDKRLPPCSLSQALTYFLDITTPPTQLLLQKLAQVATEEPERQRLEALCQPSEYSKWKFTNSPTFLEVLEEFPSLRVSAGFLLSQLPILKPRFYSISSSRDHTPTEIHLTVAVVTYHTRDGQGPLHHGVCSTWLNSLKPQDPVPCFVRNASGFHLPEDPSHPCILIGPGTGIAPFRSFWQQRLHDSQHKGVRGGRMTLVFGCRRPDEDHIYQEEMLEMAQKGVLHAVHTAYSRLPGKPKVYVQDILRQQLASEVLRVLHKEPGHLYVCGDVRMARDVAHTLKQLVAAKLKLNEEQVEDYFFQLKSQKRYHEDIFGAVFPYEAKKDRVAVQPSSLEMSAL
Sequence of Insulin receptor (Homo sapiens) (P06213 28-758 limits assumed): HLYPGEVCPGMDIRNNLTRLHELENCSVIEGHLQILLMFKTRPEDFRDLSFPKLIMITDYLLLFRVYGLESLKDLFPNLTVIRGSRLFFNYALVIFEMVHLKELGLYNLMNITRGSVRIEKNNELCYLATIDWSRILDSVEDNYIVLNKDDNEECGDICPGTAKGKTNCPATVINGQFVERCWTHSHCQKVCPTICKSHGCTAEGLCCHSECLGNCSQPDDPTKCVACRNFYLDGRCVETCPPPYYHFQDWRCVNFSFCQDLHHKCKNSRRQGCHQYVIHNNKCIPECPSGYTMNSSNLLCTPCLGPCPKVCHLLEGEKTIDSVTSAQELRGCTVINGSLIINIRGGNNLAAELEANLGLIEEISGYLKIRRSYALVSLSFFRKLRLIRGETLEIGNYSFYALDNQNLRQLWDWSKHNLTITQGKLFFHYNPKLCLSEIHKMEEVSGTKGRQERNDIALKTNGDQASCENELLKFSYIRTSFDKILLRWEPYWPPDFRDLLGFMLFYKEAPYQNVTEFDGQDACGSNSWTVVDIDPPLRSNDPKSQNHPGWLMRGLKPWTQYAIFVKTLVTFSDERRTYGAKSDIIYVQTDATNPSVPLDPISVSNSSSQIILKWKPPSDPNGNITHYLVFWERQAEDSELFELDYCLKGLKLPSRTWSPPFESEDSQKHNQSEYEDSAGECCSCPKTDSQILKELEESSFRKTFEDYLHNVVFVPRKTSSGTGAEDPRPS
Sequence of Insulin receptor (Homo sapiens) (P06213 763-1382 limits assumed): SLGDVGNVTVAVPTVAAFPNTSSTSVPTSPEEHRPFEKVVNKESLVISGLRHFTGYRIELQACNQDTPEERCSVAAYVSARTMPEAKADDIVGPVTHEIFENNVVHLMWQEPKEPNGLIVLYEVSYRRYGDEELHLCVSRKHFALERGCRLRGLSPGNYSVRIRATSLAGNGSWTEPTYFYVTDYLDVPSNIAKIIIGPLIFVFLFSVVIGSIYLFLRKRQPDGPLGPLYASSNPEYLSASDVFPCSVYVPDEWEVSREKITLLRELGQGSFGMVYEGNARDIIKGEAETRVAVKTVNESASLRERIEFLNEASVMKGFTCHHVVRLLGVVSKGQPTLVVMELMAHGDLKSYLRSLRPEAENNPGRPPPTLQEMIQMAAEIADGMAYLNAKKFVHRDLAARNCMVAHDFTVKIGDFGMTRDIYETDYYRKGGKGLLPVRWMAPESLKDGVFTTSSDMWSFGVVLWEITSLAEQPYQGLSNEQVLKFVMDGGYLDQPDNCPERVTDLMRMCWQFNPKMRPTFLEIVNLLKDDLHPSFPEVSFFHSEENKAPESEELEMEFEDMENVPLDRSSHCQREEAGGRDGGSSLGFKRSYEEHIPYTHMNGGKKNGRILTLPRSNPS
Sequence of Adenosine receptor A2a (Homo sapiens) (P29274 whole entry): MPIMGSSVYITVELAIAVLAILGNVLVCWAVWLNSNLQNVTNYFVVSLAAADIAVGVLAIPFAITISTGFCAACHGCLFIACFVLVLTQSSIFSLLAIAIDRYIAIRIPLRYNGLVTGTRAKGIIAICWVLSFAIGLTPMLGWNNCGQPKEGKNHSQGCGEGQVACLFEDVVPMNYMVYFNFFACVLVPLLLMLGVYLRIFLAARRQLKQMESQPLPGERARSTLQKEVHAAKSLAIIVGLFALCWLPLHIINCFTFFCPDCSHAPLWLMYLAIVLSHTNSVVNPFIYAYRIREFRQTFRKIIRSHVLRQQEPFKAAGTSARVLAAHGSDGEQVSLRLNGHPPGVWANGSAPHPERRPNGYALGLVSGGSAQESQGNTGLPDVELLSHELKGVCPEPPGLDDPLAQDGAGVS
Sequence of Polyunsaturated fatty acid lipoxygenase ALOX15 (Homo sapiens) (P16050 whole entry): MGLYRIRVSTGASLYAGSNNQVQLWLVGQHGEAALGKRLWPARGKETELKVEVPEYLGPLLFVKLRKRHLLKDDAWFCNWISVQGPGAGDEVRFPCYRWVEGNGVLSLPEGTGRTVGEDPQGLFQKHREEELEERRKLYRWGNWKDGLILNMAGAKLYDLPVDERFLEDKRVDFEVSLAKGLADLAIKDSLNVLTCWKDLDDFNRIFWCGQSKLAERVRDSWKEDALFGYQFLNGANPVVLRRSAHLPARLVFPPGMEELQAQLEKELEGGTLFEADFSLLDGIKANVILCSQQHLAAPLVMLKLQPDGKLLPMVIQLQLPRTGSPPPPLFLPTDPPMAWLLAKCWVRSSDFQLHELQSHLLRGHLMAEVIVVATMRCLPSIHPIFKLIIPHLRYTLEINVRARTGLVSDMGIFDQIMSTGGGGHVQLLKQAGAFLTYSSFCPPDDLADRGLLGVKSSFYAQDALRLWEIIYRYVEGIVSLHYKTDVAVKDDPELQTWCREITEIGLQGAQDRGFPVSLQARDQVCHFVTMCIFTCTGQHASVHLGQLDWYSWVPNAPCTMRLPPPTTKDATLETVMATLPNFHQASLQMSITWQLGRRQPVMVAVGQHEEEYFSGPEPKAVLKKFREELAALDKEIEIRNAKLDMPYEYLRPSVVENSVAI
Sequence of Cannabinoid receptor 2 (Homo sapiens) (P34972 whole entry): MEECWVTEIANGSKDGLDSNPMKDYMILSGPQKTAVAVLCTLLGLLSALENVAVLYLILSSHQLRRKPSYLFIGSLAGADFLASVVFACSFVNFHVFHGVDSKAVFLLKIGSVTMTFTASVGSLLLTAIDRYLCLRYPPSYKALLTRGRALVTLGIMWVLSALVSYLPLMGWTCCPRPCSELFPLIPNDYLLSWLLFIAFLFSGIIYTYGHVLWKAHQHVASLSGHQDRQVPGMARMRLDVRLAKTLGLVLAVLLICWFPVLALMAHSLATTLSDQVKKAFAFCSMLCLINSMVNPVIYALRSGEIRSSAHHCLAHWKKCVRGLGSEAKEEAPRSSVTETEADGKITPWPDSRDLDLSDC

IC50 [1]: 10 µM (not active)
Compound: Cc1noc(C)c1-c1cnc2cc(C(=O)NCCC[n+]3ccc(N(C)C)cc3)ccn12

Compound: CNc1cc[n+](CCNC(=O)c2ccn3c(-c4c(C)noc4C)cnc3c2)cc1
inhibition [2]: 3.4%
inhibition [3]: -0.5%
inhibition [4]: 6.3%
inhibition [5]: -1.7%
inhibition [6]: -8.3%
inhibition [7]: -6.7%
inhibition (D(2) dopamine receptor): -5.2%
inhibition [8]: -4.7%
inhibition [9]: -2.2%
inhibition [10]: -2.3%
inhibition [11]: 4%
inhibition [12]: -5.3%
inhibition [13]: 0.5%
inhibition [14]: 25.3%
inhibition [15]: 3.6%
inhibition [16]: -3.7%
inhibition [17]: -3.4%
inhibition [18]: 3.5%
inhibition [19]: 0.5%
inhibition [20]: -3.8%
inhibition [21]: -2.7%
inhibition [22]: 2.3%
